The source of these data is patent publication US10670605B2, “Cysteine reactive probes and uses thereof” (The Scripps Research Institute, priority 2015, dated 2020).

Molecules are shown by their SMILES.

Among the targets are STAT3 C259 (P40763) (Homo sapiens, UniProt P40763); UBE2L3 C86 (P68036) (Homo sapiens, UniProt P68036); IDH1 C269 (O75874) (Homo sapiens, UniProt O75874).
Common to all, as to assay: Competitive isoTOP-ABPP, cell lysates
What all share (format): binding

Another test has as its target T1, PDIA6 C190 (Q15084) (Homo sapiens, UniProt Q15084).
T1 sequence (Q15084 20-440): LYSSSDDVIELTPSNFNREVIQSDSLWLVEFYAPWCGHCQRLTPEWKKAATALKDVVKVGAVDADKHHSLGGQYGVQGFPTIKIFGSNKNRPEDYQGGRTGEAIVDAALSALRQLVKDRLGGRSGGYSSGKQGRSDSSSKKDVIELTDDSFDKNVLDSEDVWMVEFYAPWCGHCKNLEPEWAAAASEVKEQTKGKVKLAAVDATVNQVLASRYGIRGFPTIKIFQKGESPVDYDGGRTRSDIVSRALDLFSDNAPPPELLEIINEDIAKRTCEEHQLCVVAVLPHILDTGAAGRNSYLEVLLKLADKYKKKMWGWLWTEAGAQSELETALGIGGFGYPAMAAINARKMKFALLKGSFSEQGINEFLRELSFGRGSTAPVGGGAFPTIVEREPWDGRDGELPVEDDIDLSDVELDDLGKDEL
Particulars: for isoTOP-ABPP ratio, Q15084_C190: 500 μM, invitro; for isoTOP-ABPP reactivity ratio, Q15084_C190: 500 μm, in-vitro_ramos_231.

In the next test the target is T2, PDIA6 C55 (Q15084) (Homo sapiens, UniProt Q15084).
T2 sequence (Q15084 20-440): T1 sequence (Q15084 20-440)
Particulars: for isoTOP-ABPP ratio Q15084_C55: 500 μM, invitro; for isoTOP-ABPP reactivity ratio, Q15084_C55: 500 μm, in-vitro_ramos_231.

The target of a further test is XPO1 C528 (O14980) (Homo sapiens, UniProt O14980). To be noted: for isoTOP-ABPP ratio O14980_C528: 500 μM, invitro, 231; for isoTOP-ABPP reactivity ratio, O14980_C528: 500 μm, in-vitro_ramos.
The target in another test is GSTP1 C48 (P09211) (Homo sapiens, UniProt P09211). Particulars: for isoTOP-ABPP ratio, P09211_C48: 500 μM, invitro; for isoTOP-ABPP reactivity ratio, P09211_C48: 500 μm.
For a further test, the target named is GNB2L1 C182 (P63244) (Homo sapiens, UniProt P63244). Particulars: for isoTOP-ABPP ratio, P63244_C182: 500 μM, invitro; for isoTOP-ABPP ratio (reactivity profile), P63244_C182: 500 μm in-vitro ramos_231; for isoTOP-ABPP reactivity ratio, P63244_C182: 500 μm.
Another test concerns the target T3, PCK2 C306 (Q16822) (Homo sapiens, UniProt Q16822).
T3 sequence (Q16822 33-640): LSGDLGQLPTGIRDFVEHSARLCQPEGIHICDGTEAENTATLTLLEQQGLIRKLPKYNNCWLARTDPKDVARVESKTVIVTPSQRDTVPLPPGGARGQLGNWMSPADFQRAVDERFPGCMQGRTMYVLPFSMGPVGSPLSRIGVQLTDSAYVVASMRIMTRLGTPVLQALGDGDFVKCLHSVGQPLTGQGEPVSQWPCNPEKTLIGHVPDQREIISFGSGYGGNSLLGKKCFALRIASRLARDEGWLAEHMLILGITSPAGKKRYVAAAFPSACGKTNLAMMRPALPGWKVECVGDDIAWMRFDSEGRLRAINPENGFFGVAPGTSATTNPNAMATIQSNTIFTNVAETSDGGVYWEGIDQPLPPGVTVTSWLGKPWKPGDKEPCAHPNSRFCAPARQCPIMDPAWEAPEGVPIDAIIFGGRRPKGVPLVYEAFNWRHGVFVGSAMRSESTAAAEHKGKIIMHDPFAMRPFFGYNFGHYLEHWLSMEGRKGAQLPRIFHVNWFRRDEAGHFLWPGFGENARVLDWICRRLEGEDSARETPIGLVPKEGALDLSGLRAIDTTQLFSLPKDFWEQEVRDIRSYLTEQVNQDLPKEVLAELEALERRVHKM
To be noted: for isoTOP-ABPP ratio, Q16822_C306: 500 μM, invitro; for isoTOP-ABPP ratio (reactivity profile), Q16822_C306: 500 μm in-vitro ramos_231; for isoTOP-ABPP reactivity ratio, Q16822_C306: 500 μm.

Another test has as its target SMARCC2 C145 (Q8TAQ2) (Homo sapiens, UniProt Q8TAQ2). To be noted: for isoTOP-ABPP ratio Q8TAQ2_C145: 500 μM, invitro; for isoTOP-ABPP ratio (reactivity profile), Q8TAQ2_C145: 500 μm in-vitro ramos_231.

With `CNS(=O)(=O)C=Cc1ccc2c(ccn2Cc2ccccc2)c1` [compound 6], at PDIA6 C190 (Q15084) (231), the “isoTOP-ABPP ratio, Q15084_C190” value is recorded as 1.1. In addition, the “isoTOP-ABPP ratio, P40763_C259” value on STAT3 C259 (P40763) (500 μM, invitro, 231) is 0.6. Further, the “isoTOP-ABPP ratio Q15084_C55” value on PDIA6 C55 (Q15084) (231) is given as 1.0. The “isoTOP-ABPP ratio O14980_C528” value at XPO1 C528 (O14980) was found to be 0.7. Besides, the “isoTOP-ABPP ratio, P09211_C48” value at GSTP1 C48 (P09211) (231) turned out to be 1.2. At GNB2L1 C182 (P63244) (231), the “isoTOP-ABPP ratio, P63244_C182” value worked out at 1.5. Also, the “isoTOP-ABPP ratio, P68036_C86” value on UBE2L3 C86 (P68036) (500 μM, invitro, 231) worked out at 1.8.

Turning to `O=C(CCl)NC(=O)NC12CC3CC(CC(C3)C1)C2` [compound 12], the “isoTOP-ABPP ratio, Q15084_C190” value at PDIA6 C190 (Q15084) (ramos) is listed as 20.0. The “isoTOP-ABPP ratio Q15084_C55” value is 3.7 at PDIA6 C55 (Q15084) (231) and 3.1 on PDIA6 C55 (Q15084) (ramos). Also, the results for the “isoTOP-ABPP ratio, Q16822_C306” value on PCK2 C306 (Q16822) (231) and on PCK2 C306 (Q16822) (ramos) were 1.5 and 0.7, respectively. Further, the “isoTOP-ABPP ratio O14980_C528” value at XPO1 C528 (O14980) is 1.1. Further, the figures for the “isoTOP-ABPP ratio, P09211_C48” value at GSTP1 C48 (P09211) (231) and on GSTP1 C48 (P09211) (ramos) were 2.9 and 1.1, respectively. Besides, the “isoTOP-ABPP ratio, P63244_C182” value is reported as 0.9 at GNB2L1 C182 (P63244) (231) and 0.8 at GNB2L1 C182 (P63244) (ramos). In addition, the “isoTOP-ABPP ratio Q8TAQ2_C145” value at SMARCC2 C145 (Q8TAQ2) (231) turned out to be 2.8; at SMARCC2 C145 (Q8TAQ2) (ramos), 1.6.

Take `N#C/C(=C\c1cc(C(F)(F)F)cc(C(F)(F)F)c1)C(N)=O` [compound 23]: the “isoTOP-ABPP ratio (reactivity profile), Q15084_C190” value amounted to 1.1 at PDIA6 C190 (Q15084) (500 μm in-vitro ramos) and 0.8 at PDIA6 C190 (Q15084) (500 μm in-vitro ramos_231). The “isoTOP-ABPP ratio (reactivity profile), P40763_C259” value is listed as 0.8 on STAT3 C259 (P40763) (500 μm in-vitro ramos) and 1.1 on STAT3 C259 (P40763) (500 μm in-vitro ramos_231). The “isoTOP-ABPP ratio (reactivity profile), Q15084_C55” value at PDIA6 C55 (Q15084) (500 μm in-vitro ramos) came to 1.0; at PDIA6 C55 (Q15084) (500 μm in-vitro ramos_231) it was 0.8. Further, on PCK2 C306 (Q16822), the “isoTOP-ABPP ratio (reactivity profile), Q16822_C306” value is listed as 3.0. Besides, the “isoTOP-ABPP ratio (reactivity profile), O75874_C269” value was determined as 1.1 at IDH1 C269 (O75874) (500 μm in-vitro ramos) and 0.7 on IDH1 C269 (O75874) (500 μm in-vitro ramos_231). For the same compound, the “isoTOP-ABPP ratio (reactivity profile), O14980_C528” value at XPO1 C528 (O14980) (500 μm in-vitro ramos) came to 2.9. Further, the “isoTOP-ABPP ratio (reactivity profile), P09211_C48” value on GSTP1 C48 (P09211) (500 μm in-vitro ramos) was 0.9; at GSTP1 C48 (P09211) (500 μm in-vitro ramos_231), 0.8. The “isoTOP-ABPP ratio (reactivity profile), P63244_C182” value at GNB2L1 C182 (P63244) came out at 4.6. The “isoTOP-ABPP ratio (reactivity profile), Q8TAQ2_C145” value on SMARCC2 C145 (Q8TAQ2) is on record as 1.3. Further, the “isoTOP-ABPP ratio (reactivity profile), P68036_C86” value at UBE2L3 C86 (P68036) (500 μm in-vitro ramos) is recorded as 13.2; at UBE2L3 C86 (P68036) (500 μm in-vitro ramos_231), 7.4.

Consider `CC(Cl)C(=O)Nc1cc(C(F)(F)F)cc(C(F)(F)F)c1` (stereo not drawn) [compound 25], for which the “isoTOP-ABPP ratio (reactivity profile), Q15084_C190” value at PDIA6 C190 (Q15084) (500 μm in-vitro ramos_231) is on record as 1.0. In addition, on STAT3 C259 (P40763) (500 μm in-vitro ramos_231), the “isoTOP-ABPP ratio (reactivity profile), P40763_C259” value is given as 0.9. In addition, the “isoTOP-ABPP ratio (reactivity profile), Q15084_C55” value on PDIA6 C55 (Q15084) (500 μm in-vitro ramos_231) was found to be 1.0. Moreover, the “isoTOP-ABPP ratio (reactivity profile), Q16822_C306” value at PCK2 C306 (Q16822) is 0.8. Besides, the “isoTOP-ABPP ratio (reactivity profile), O75874_C269” value at IDH1 C269 (O75874) (500 μm in-vitro ramos_231) came out at 1.0. For the same compound, the “isoTOP-ABPP ratio (reactivity profile), P09211_C48” value at GSTP1 C48 (P09211) (500 μm in-vitro ramos_231) is listed as 1.8. The “isoTOP-ABPP ratio (reactivity profile), P63244_C182” value on GNB2L1 C182 (P63244) came to 1.2. For the same compound, the “isoTOP-ABPP ratio (reactivity profile), Q8TAQ2_C145” value on SMARCC2 C145 (Q8TAQ2) was 0.9. The “isoTOP-ABPP ratio (reactivity profile), P68036_C86” value on UBE2L3 C86 (P68036) (500 μm in-vitro ramos_231) is given as 1.5.

Regarding `O=C(CCl)N(Cc1ccc(F)cc1)C12CC3CC(CC(C3)C1)C2` [compound 34], the “isoTOP-ABPP reactivity ratio, Q15084_C190” value at PDIA6 C190 (Q15084) is on record as 0.9. Also, the “isoTOP-ABPP reactivity ratio, Q15084_C55” value at PDIA6 C55 (Q15084) is given as 0.9. Moreover, the “isoTOP-ABPP reactivity ratio, O14980_C528” value at XPO1 C528 (O14980) was 1.1. Also, the “isoTOP-ABPP reactivity ratio, P09211_C48” value came out at 1.0 at GSTP1 C48 (P09211) (in-vitro_ramos) and 0.8 on GSTP1 C48 (P09211) (in-vitro_ramos_231).

As for `O=C(CCl)Nc1ccccc1C1CCCCCC1` [compound 35], the “isoTOP-ABPP reactivity ratio, Q15084_C190” value at PDIA6 C190 (Q15084) was determined as 0.9. Besides, the “isoTOP-ABPP reactivity ratio, P40763_C259” value on STAT3 C259 (P40763) (500 μm, in-vitro_ramos) amounted to 1.1. Moreover, at PDIA6 C55 (Q15084), the “isoTOP-ABPP reactivity ratio, Q15084_C55” value is listed as 0.9. Further, the “isoTOP-ABPP reactivity ratio, Q16822_C306” value was 1.0 at PCK2 C306 (Q16822) (in-vitro_ramos) and 0.9 at PCK2 C306 (Q16822) (in-vitro_ramos_231). Moreover, the “isoTOP-ABPP reactivity ratio, O14980_C528” value at XPO1 C528 (O14980) is recorded as 0.8. Further, the “isoTOP-ABPP reactivity ratio, P09211_C48” value is on record as 1.3 at GSTP1 C48 (P09211) (in-vitro_ramos) and 0.7 at GSTP1 C48 (P09211) (in-vitro_ramos_231). Further, the “isoTOP-ABPP reactivity ratio, P63244_C182” value at GNB2L1 C182 (P63244) (in-vitro_ramos) and at GNB2L1 C182 (P63244) (in-vitro_ramos_231) was 0.9 each time. For the same compound, the “isoTOP-ABPP reactivity ratio, Q8TAQ2_C145” value at SMARCC2 C145 (Q8TAQ2) (500 μm, in-vitro_ramos_231) was 0.9.
